What was measured:
mGluR5 receptors = target: T1, mGluR5 receptors (Rattus norvegicus, UniProt P31424); assay: Cytosolic Calcium studies with astrocytes (astrocyte culture test, FLIPR); type: cell-based; details: primary rat cortical astrocytes; L-quisqualate 100 nM; read-out: mGluR5_FLIPRr_rpA IC50
T1 construct: Primary astrocyte cultures are prepared from cortices of newborn rats; endogenous in cells; host or cells: primary cortical astrocytes of Sprague-Dawley rat pups (2-4 d old)
Description: Primary astrocyte cultures are prepared from cortices of newborn rats as described by Booher and Sensenbrenner (1972, Neurobiology 2(3):97-105). Briefly, Sprague-Dawley rat pups (2-4 d old) are decapitated and neocortices are dissected, disintegrated with a nylon filter (pore size 80 μm) and carefully triturated. The cell suspension is plated on poly-D-lysine pre-coated flasks (Costar, Netherlands) and cultivated in Dulbecco's Modified Eagle's Medium (DMEM, Invitrogen, Germany) supplemented with 10% foetal calf serum (FCS, Sigma, Germany), 4 mM glutamine and 50 μg/ml gentamycin (both Biochrom, Germany) at 37° C. in a humidified atmosphere of 5% CO2/95% air for 7 d with exchanging the medium at day 2 and 6.
After 7 days in vitro (DIV), cells are shaken overnight at 250 rpm to remove oligodendrocytes and microglia. The next day, astrocytes are rinsed twice with CMF-PBS (calcium- and magnesium-free phosphate buffered saline, Biochrom, Germany), trypsinized and subplated on poly-D-lysine pre-coated 96-well plates (Greiner, Germany) at a density of 40,000 cells/well. 24 h after establishing the secondary culture the astrocytes are rinsed with PBS^++ (phosphate buffered saline, Biochrom, Germany) and fed with astrocyte-defined medium (ADM) consisting of DMEM containing 1×G5-supplement (Invitrogen, Germany), 0.5 μg/ml heparan sulfate, and 1.5 μg/ml fibronectin (both Sigma, Germany) (Miller et al., (1993) Brain Res. 618(1):175-8). 3 d later the medium is exchanged and the cells incubated for another 2-3 d, so that at the time of experiments astrocytes are 14-15 DIV.
Cytosolic Calcium Studies with Astrocytes:
The increase of cytosolic calcium after stimulation with the mGluR5 agonist L-quisqualate is measured using a fluorometric imaging plate reader (FLIPR) and the Ca-Kit (both Molecular Devices). Prior to addition of agonist or antagonist the medium is aspirated and cells are loaded for 2 h at RT with 150 μl of loading buffer consisting of Ca-sensitive dye reconstituted in sodium chloride (123 mM), potassium chloride (5.4 mM), magnesium chloride (0.8 mM), calcium chloride (1.8 mM), D-glucose (15 mM), and HEPES (20 mM), pH 7.3. Subsequently, plates are transferred to FLIPR to detect calcium increase with the addition of L-quisqualate (100 nM) measured as relative fluorescence units (RFU). If antagonists are tested, these compounds are pre-incubated for 10 minutes at RT before addition of the respective agonist.
(§1) The fluorescence signal increase after addition of agonist reflects the increase of cytosolic calcium. Inconsistencies in the amount of cells per well are normalised by using the spatial uniformity correction of the FLIPR software. The mean of replicated temporal data (n=3-5) is calculated and used for graphical representation. For the evaluation of the pharmacology, the calcium changes in response to different concentrations of agonist or antagonist are determined using a maximum minus minimum (MaxMin) calculation.
(§2) All responses (RFU-values) are determined as percentage of control (=maximum response). EC50 and IC50 are calculated according the logistic equation using GraFit 5.0 (Erithacus Software, GB) or Prism 4.0 (GraphPad Software, USA). The compounds of the present invention have a potency (IC50) within a range of about […].

[1] = target: T2, metabotropic glutamate receptor (mGluR5) (Homo sapiens, UniProt P41594); assay: Cytosolic Calcium studies with stably transfected cells (FLIPR, CHO-K1); type: cell-based; set-up: expressed in transfected cells; host or cells: CHO-K1 cells, IPTG-inducible expression; details: CHO-K1 cells expressing human mGluR5; agonist L-quisqualic acid at ~80% of maximal signal; read-out: mGluR5_FLIPR_h_CHO_NAM IC50
Description: Functional Assays of mGluR5 Receptors
Cytosolic Calcium studies with stably transfected cells:
Chinese hamster ovary cells (CHO-K1 cells), stably transfected for inducible expression of a human metabotropic glutamate receptor mGluR5, are seeded into black clear bottom 96 well plates at a density of 35.000 cells per well. The standard growth medium used (Dulbecco's modified Eagle Medium, DMEM plus L-proline) contains the appropriate inducer isopropyl-β-D-thiogalactopyranosid (IPTG) to achieve optimal receptor expression. One day after seeding the growth medium is exchanged for reconstituted Ca-Kit (Molecular Devices, USA) and incubated for one hour. Ca-Kit is reconstituted in an assay buffer containing 20 mM HEPES pH 7.4, glutamic-pyruvate transaminase, pyridoxal phosphate and sodium pyruvate in Hank's balanced salt solution (HBBS). Agonistic compounds to the receptor elicit increases in cytosolic calcium which can be measured as increases in fluorescence signals by use of a fluorescence imaging plate reader (Molecular Devices).
as §1, §2

[2] = target: T3, transmembrane allosteric modulatory sites of mGluR5 receptors in cortical membranes (Rattus norvegicus, UniProt P31424); assay: [3H]-MMPEP binding assay in rat cortical membranes; details: 3H-MMPEP radioligand, read-out: mGluR5_M_MPEP_r_CTX_IC50
T3 construct: from tissue; host or cells: cortex of male Sprague-Dawley rats, membrane preparation
Description: Binding Assays for the Characterization of mGluR5 Antagonists
Preparation of Rat Cortical Membranes:
Male Sprague-Dawley rats (200-250 g) are decapitated and their brains are removed rapidly. The cortex is dissected and homogenized in 20 volumes of ice-cold 0.32 M sucrose using a glass-Teflon homogenizer. The homogenate is centrifuged at 1000×g for 10 minutes. The pellet is discarded and the supernatant centrifuged at 20,000×g for 20 minutes. The resulting pellet is re-suspended in 20 volumes of distilled water and centrifuged for 20 minutes at 8000×g. Then the supernatant and the buffy coat are centrifuged at 48,000×g for 20 minutes in the presence of 50 mM Tris-HCl, pH 8.0. The pellet is then re-suspended and centrifuged two to three more times at 48,000×g for 20 minutes in the presence of 50 mM Tris-HCl, pH 8.0. All centrifugation steps are carried out at 4° C. After resuspension in 5 volumes of 50 mM Tris-HCl, pH 8.0 the membrane suspension is frozen rapidly at −80° C.
On the day of assay the membranes are thawed and washed four times by resuspension in 50 mM Tris-HCl, pH 8.0 and centrifugation at 48,000×g for 20 minutes and finally re-suspended in 50 mM Tris-HCl, pH 7.4. The amount of protein in the final membrane preparation (500-700 μg/ml) is determined according to the method of Lowry (Lowry O. H. et al. 1951. J. Biol. Chem. 193, 256-275).
Incubations are started by adding[^3H]-MPEP (50.2 Ci/mmol, 5 nM, Tocris, GB) to vials with 125-250 μg protein (total volume 0.25 ml) and various concentrations of the agents.
Alternatively, assays are performed with [^3H]-MMPEP (2-(3-methoxyphenylethynyl)-6-methylpyridine hydrochloride) as radioligand. The incubations are continued at room temperature for 60 minutes (equilibrium is achieved under the conditions used). […] Incubations are terminated using a Millipore filter system. The samples are rinsed twice with 4 ml of ice-cold assay buffer over glass fibre filters (Schleicher & Schuell, Germany) under a constant vacuum. Following separation and rinse, the filters are placed into scintillation liquid (5 ml Ultima Gold, Perkin Elmer, Germany) and radioactivity retained on the filters is determined with a conventional liquid scintillation counter (Can berra Packard, Germany).

[3] = target: T2, metabotropic glutamate receptor (mGluR5); assay: Activity as mGluR5 modulator of prior-art compounds (test not described); details: result in words

T1 sequence (P31424 21-1203): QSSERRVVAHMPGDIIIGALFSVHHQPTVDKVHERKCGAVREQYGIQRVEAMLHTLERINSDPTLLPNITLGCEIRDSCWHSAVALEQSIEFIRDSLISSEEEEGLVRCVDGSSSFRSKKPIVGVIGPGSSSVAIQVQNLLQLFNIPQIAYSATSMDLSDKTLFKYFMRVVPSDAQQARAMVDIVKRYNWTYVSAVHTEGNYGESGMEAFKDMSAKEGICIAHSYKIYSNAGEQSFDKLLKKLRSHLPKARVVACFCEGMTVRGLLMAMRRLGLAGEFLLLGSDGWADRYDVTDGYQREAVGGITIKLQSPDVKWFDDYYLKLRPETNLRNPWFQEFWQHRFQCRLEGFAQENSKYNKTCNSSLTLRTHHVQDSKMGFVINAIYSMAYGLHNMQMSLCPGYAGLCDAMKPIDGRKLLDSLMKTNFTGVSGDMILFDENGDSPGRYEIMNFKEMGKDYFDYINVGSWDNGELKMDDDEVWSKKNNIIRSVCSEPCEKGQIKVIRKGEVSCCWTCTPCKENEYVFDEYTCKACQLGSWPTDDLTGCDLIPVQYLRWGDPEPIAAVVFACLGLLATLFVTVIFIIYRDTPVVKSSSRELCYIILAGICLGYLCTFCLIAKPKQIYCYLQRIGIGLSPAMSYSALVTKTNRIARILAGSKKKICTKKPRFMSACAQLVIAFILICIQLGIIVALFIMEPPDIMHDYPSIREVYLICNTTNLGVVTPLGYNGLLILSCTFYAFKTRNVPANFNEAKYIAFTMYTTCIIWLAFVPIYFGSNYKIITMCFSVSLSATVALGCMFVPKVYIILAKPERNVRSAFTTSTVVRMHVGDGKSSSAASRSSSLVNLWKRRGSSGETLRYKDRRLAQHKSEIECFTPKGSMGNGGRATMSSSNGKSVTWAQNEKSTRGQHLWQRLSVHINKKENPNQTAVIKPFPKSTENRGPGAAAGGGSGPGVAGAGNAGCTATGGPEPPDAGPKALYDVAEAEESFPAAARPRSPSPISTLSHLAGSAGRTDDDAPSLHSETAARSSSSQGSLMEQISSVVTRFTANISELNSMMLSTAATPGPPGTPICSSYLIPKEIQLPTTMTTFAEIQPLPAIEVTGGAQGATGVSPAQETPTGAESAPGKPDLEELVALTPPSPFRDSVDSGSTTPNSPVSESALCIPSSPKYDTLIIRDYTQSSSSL
T3 sequence (P31424 21-1203): as above
T2 sequence (P41594 21-1212): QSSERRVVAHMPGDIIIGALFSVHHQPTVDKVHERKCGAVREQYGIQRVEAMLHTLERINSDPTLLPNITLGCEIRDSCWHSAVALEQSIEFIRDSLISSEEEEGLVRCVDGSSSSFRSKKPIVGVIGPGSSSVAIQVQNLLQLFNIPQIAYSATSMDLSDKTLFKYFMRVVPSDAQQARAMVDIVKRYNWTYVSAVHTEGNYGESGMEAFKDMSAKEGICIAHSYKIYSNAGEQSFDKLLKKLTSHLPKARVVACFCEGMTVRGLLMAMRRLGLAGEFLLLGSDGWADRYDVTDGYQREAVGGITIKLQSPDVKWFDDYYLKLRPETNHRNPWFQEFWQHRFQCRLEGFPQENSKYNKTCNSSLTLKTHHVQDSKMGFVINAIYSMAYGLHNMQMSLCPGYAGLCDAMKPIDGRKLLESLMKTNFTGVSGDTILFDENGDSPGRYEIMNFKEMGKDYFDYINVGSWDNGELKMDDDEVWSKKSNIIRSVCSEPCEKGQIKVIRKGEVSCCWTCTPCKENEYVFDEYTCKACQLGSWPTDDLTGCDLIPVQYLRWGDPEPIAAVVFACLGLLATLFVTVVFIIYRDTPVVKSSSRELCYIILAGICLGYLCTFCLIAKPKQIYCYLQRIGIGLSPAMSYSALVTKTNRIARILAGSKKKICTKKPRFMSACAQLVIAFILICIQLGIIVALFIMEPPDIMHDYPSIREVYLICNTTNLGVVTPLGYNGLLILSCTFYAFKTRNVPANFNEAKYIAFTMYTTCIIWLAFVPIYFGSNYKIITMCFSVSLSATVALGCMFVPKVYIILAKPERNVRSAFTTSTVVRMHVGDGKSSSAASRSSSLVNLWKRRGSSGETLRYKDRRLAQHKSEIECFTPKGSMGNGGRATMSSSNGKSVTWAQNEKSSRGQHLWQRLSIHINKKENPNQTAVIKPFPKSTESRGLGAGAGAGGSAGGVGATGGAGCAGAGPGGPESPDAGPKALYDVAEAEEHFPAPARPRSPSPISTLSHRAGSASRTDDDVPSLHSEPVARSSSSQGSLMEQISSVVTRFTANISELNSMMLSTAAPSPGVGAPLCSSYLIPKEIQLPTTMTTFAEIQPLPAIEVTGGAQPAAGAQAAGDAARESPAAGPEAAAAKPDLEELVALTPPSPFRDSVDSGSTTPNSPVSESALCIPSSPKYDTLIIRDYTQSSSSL

SMILES	IC50 (mGluR5 receptors)	IC50 [1]	IC50 [2]	activity as metabotropic glutamate receptor (mGluR5) modulator [3]	selectivity [3]
CN1c2ccccc2CCN1C(=O)c1cc2ncc(Br)cn2n1 [Example 182, (6-Bromo-pyrazolo[1,5-a]pyrimidin-2-yl)-(1-methyl-3,4-dihydro-1H-cinnolin-2-yl)-methanone]	63.7 nM	189 nM	281 nM	–	–
O=C(c1cc2ncc(Br)cn2n1)N1CCCCC1 [Example B308, (6-Bromopyrazolo[1,5-a]pyrimidin-2-yl)-piperidin-1-yl-methanone]	–	–	–	no particular activity	–
CC1c2ccc(Cl)n2CCN1C(=O)c1cc2ncc(Br)cn2n1 (stereo not drawn) [Example 31, (6-Chloro-1-methyl-3,4-dihydro-1H-pyrrolo[1,2-a]pyrazin-2-yl)-(6-bromo-pyrazolo[1,5-a]pyrimidin-2-yl)-methanone]	22.5 nM	84.4 nM	44.5 nM	–	–
CC1c2ccc(Cl)n2CCN1C(=O)c1cc2ncc(Cl)cn2n1 (stereo not drawn) [Example 29, (6-Chloro-1-methyl-3,4-dihydro-1H-pyrrolo[1,2-a]pyrazin-2-yl)-(6-chloro-pyrazolo[1,5-a]pyrimidin-2-yl)-methanone]	21.9 nM	91 nM	42 nM	–	–
Cc1ccc2n1CCN(C(=O)c1cc3ncc(Br)cn3n1)[C@@H]2C [(R)-(6-Bromo-pyrazolo[1,5-a]pyrimidin-2-yl)-(1,6-dimethyl-3,4-dihydro-1H-pyrrolo[1,2-a]pyrazin-2-yl)-methanone]	34.3 nM	118 nM	74 nM	–	–
CC1c2ccc(Br)n2CCN1C(=O)c1cc2ncc(Br)cn2n1 (stereo not drawn) [Example 39, (6-Bromo-1-methyl-3,4-dihydro-1H-pyrrolo[1,2-a]pyrazin-2-yl)-(6-bromo-pyrazolo[1,5-a]pyrimidin-2-yl)-methanone]	15 nM	74.5 nM	54.9 nM	–	–
Cc1ccc2n1CCN(C(=O)c1cc3ncc(Cl)cn3n1)C2C (stereo not drawn) [Example 5, (6-Chloro-pyrazolo[1,5-a]pyrimidin-2-yl)-(1,6-dimethyl-3,4-dihydro-1H-pyrrolo[1,2-a]pyrazin-2-yl)-methanone]	87.3 nM	327 nM	274 nM	–	–
CC1c2ccc(Br)n2CCN1C(=O)c1cc2ncc(Cl)cn2n1 (stereo not drawn) [Example 37, (6-Bromo-1-methyl-3,4-dihydro-1H-pyrrolo[1,2-a]pyrazin-2-yl)-(6-chloro-pyrazolo[1,5-a]pyrimidin-2-yl)-methanone]	17 nM	34.2 nM	73 nM	–	–
CN1c2ccccc2CCN1C(=O)c1cc2ncc(Cl)cn2n1 [Example 181, (6-Chloro-pyrazolo[1,5-a]pyrimidin-2-yl)-(1-methyl-3,4-dihydro-1H-cinnolin-2-yl)-methanone]	82.3 nM	166 nM	247 nM	–	–
O=C(c1cc2ncc(Br)cn2n1)N1CCc2ccccc2C1 [M, (6-Bromo-pyrazolo[1,5-a]pyrimidin-2-yl)-(1,2,3,4-tetrahydro-isoquinolin-2-yl)-methanone]	–	–	–	only a limited activity	not selective
Cc1ccc2n1CCN(C(=O)c1cc3ncc(Br)cn3n1)C2C (stereo not drawn) [Example 7, (6-Bromo-pyrazolo[1,5-a]pyrimidin-2-yl)-(1,6-dimethyl-3,4-dihydro-1H-pyrrolo[1,2-a]pyrazin-2-yl)-methanone]	50 nM	222 nM	219 nM	–	–
O=C(c1cc2ncc(Br)cn2n1)N1CCOCC1 [Example B310, (6-Bromopyrazolo[1,5-a]pyrimidin-2-yl)-morpholin-4-yl-methanone]	–	–	–	no particular activity	–
C[C@@H]1c2ccc(Cl)n2CCN1C(=O)c1cc2ncc(Br)cn2n1 [(R)-(6-Bromo-pyrazolo[1,5-a]pyrimidin-2-yl)-(6-chloro-1-methyl-3,4-dihydro-1H-pyrrolo[1,2-a]pyrazin-2-yl)-methanone]	7.8 nM	24.5 nM	–	–	–

— patent US20110003820A1, “PYRAZOLOPYRIMIDINES, A PROCESS FOR THEIR PREPARATION AND THEIR USE AS MEDICINE” (MERZ PHARMA GMBH & CO. KGaA, priority 2008, published 2011)
